Laboratory results from ChEMBL document CHEMBL4610053, “Synthesis and biological evaluation of 2-quinolineacrylamides” (Bioorg Med Chem, 2020).
Values belong to the molecule of their own block, whether it stands above or below them.

Tests used:
HCT-116 = experiment: Antiproliferative activity against human HCT116 cells assessed as reduction in cell viability incubated for 48 hrs by Sulforhodamine B assay; format: functional; details: HCT-116, 48 h
A549 = experiment: Antiproliferative activity against human A549 cells assessed as reduction in cell viability incubated for 48 hrs by Sulforhodamine B assay; format: functional; details: A549, 48 h
[1] = target: T1, Protein deacetylase HDAC6 (Homo sapiens) (UniProt Q9UBN7); experiment: Inhibition of HDAC6 in human HCT116 cells assessed as increase in tubulin acetylation measured after 48 hrs by Western blot analysis; format: cell-based; details: HCT-116
T1 sequence (whole entry): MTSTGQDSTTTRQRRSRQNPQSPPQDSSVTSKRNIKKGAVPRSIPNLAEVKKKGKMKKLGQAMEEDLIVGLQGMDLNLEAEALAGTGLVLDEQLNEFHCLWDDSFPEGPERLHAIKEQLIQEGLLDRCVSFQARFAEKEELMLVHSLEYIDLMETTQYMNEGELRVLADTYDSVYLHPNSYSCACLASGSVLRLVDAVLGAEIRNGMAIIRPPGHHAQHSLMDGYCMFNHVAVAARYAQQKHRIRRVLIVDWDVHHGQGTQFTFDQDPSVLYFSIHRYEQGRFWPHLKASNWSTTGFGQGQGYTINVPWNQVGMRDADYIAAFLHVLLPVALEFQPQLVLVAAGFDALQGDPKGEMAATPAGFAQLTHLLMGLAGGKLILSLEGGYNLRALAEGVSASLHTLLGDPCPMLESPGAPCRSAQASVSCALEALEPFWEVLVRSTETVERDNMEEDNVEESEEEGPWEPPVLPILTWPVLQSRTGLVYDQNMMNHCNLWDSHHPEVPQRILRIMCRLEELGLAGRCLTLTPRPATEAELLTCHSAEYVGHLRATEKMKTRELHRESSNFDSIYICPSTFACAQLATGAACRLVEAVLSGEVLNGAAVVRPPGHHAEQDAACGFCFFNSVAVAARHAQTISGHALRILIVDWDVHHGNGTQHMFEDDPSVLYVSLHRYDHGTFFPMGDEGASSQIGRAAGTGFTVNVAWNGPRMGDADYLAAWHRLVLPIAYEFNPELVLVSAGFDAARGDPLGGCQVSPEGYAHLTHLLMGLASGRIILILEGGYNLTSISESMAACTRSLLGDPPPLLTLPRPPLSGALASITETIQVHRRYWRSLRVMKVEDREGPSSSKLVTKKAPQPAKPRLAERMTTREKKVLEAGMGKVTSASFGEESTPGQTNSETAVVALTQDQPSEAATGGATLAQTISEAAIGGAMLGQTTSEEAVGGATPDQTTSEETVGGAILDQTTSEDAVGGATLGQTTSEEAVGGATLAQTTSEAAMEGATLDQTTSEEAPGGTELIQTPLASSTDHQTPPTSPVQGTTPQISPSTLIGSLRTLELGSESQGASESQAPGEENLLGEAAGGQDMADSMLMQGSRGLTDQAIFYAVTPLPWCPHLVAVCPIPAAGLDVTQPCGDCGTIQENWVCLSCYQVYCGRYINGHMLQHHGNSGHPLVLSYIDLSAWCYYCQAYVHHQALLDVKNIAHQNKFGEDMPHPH

Histone deacetylase 1 = Histone deacetylase 1 (Homo sapiens, UniProt Q13547); experiment: Inhibition of recombinant human C-terminal FLAG/His-tagged HDAC1 (1 to 482 residues) expressed in Sf21 insect cells by using RHK-K(Ac)-AMC as substrate measured after 60 mins by fluorescence assay
Homo sapiens [2] = species on record: Homo sapiens; experiment: Selectivity ratio of IC50 for recombinant human C-terminal FLAG/His-tagged HDAC1 (1 to 482 residues) expressed in Sf21 insect cells to IC50 of human HDAC6
[3] = target: Class 1 histone deacetylase (Homo sapiens) (UniProt Q13547+O15379+Q92769+Q9BY41); experiment: Inhibition of class 1 HDAC in human HCT116 cells assessed as increase in H3 acetylation measured after 48 hrs by Western blot analysis; format: cell-based; details: HCT-116
Histone deacetylase 8 = target: T2, Histone deacetylase 8 (Homo sapiens, UniProt Q9BY41); experiment: Inhibition of recombinant human C-terminal His-tagged HDAC8 (1 to 377 residues) expressed in insect cells using RHK-K(Ac)-AMC as substrate measured after 60 mins by fluorescence assay
T2 sequence (Q9BY41 whole entry): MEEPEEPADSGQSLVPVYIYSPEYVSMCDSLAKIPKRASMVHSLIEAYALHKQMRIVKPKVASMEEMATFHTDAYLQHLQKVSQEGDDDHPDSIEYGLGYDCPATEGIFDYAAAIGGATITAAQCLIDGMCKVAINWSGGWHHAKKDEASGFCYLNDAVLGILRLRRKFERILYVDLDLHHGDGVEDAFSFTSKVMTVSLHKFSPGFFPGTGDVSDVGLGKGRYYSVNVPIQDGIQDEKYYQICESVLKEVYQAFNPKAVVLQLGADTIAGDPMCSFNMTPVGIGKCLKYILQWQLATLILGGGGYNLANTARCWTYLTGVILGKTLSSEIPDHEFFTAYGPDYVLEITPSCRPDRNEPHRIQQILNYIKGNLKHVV

Histone deacetylase 2 = Histone deacetylase 2 (Homo sapiens, UniProt Q92769); experiment: Inhibition of recombinant human C-terminal GST-tagged HDAC2 (1 to 488 residues) expressed in insect cells using RHK-K(Ac)-AMC as substrate measured after 60 mins by fluorescence assay
Homo sapiens [4] = species on record: Homo sapiens; experiment: Selectivity ratio of IC50 for recombinant human C-terminal His-tagged HDAC8 (1 to 377 residues) expressed in insect cells to IC50 of human HDAC6
[5] = target: T3, Protein deacetylase HDAC6 (Homo sapiens, UniProt Q9UBN7); experiment: Inhibition of human HDAC6 using fluorogenic-(RHKKAc) as substrate by fluorescence assay
T3 sequence (Q9UBN7 whole entry): T1 sequence (whole entry)

Homo sapiens [6] = species on record: Homo sapiens; experiment: Selectivity ratio of IC50 for recombinant human C-terminal GST-tagged HDAC2 (1 to 488 residues) expressed in insect cells to IC50 of human HDAC6

Histone deacetylase 1, sequence (Q13547 whole entry, the tested form may be a part): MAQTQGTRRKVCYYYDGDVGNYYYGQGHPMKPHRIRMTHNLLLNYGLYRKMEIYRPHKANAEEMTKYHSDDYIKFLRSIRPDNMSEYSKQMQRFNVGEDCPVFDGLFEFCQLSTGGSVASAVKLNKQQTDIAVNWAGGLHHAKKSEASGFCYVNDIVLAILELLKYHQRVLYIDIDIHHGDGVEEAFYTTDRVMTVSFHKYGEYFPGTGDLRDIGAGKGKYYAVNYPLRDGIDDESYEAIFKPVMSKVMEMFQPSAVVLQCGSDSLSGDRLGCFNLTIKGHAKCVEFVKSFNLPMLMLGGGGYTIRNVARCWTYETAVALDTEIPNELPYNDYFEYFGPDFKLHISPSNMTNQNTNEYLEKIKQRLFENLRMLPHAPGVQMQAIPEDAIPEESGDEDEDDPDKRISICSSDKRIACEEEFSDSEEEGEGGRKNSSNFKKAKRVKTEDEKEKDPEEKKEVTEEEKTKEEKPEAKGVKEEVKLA
Histone deacetylase 2, sequence (Q92769 whole entry, the tested form may be a part): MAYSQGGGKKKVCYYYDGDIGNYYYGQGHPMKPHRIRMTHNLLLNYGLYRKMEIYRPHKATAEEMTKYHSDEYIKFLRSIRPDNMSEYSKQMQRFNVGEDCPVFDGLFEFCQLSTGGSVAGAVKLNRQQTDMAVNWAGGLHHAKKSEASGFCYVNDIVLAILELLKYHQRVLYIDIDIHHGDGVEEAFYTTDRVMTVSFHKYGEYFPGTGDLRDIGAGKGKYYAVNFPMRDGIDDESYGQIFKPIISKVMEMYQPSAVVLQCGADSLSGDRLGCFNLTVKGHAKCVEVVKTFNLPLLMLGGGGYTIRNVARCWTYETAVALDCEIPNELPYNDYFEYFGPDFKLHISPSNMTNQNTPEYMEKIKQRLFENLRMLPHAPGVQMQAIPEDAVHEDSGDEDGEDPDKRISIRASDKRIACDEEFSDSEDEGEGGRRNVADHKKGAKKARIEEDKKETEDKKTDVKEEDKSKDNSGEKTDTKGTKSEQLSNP

GI50 (HCT-116): > 5000 nM | GI50 (A549): > 5000 nM
Structure (SMILES): CN1CCc2c(c3ccccc3n2Cc2ccc(C(=O)NO)cc2)C1 [TUBASTATIN A]

GI50 (HCT-116): 2510 nM | GI50 (A549): 2580 nM
Structure (SMILES): Cc1ccc(C(=O)c2ccc3nc(/C=C/C(=O)NO)ccc3c2)cc1

GI50 (HCT-116): 1560 nM | GI50 (A549): 1920 nM
Structure (SMILES): O=C(/C=C/c1ccc2cc(-c3ccoc3)ccc2n1)NO

GI50 (HCT-116): 440 nM | GI50 (A549): 2620 nM
Structure (SMILES): O=C(CCCCCCC(=O)Nc1ccccc1)NO [VORINOSTAT]

GI50 (HCT-116): 2300 nM | GI50 (A549): 1890 nM
Structure (SMILES): COc1ccc(C(=O)c2ccc3nc(/C=C/C(=O)NO)ccc3c2)cc1

GI50 (HCT-116): 1780 nM | GI50 (A549): 3310 nM
Structure (SMILES): COc1ccc(C(=O)c2ccc3nc(/C=C/C(=O)NO)ccc3c2)cc1OC

GI50 (HCT-116): 4080 nM | GI50 (A549): 3280 nM
Structure (SMILES): CC(C)c1ccc(Oc2ccc3nc(/C=C/C(=O)NO)ccc3c2)cc1

GI50 (HCT-116): 6680 nM | GI50 (A549): 4310 nM
Structure (SMILES): COc1ccc(S(=O)(=O)Nc2ccc3nc(/C=C/C(=O)NO)ccc3c2)cc1

inhibition [1]: Dose-dependent effect | GI50 (HCT-116): 1000 nM | IC50 (Histone deacetylase 1; read-out: IC50): 6050 nM | GI50 (A549): 1630 nM | inhibition [3]: Dose-dependent effect | IC50 (Histone deacetylase 8): 2320 nM | IC50 (Histone deacetylase 2): Not Active | IC50 [5]: 51.4 nM
Structure (SMILES): O=C(/C=C/c1ccc2cc(Oc3ccc([N+](=O)[O-])cc3)ccc2n1)NO
Ratio IC50 (Homo sapiens [2]): 118 | Ratio IC50 (Homo sapiens [4]): 45

GI50 (HCT-116): 1840 nM | GI50 (A549): 1260 nM
Structure (SMILES): O=C(/C=C/c1ccc2cc(C(=O)c3ccc(F)cc3)ccc2n1)NO

inhibition [1]: Dose-dependent effect | GI50 (HCT-116): 740 nM | IC50 (Histone deacetylase 1; read-out: IC50): 1770 nM | GI50 (A549): 2430 nM | inhibition [3]: Dose-dependent effect | IC50 (Histone deacetylase 8): 2820 nM | IC50 (Histone deacetylase 2; read-out: IC50): 18.7 nM | IC50 [5]: 26.5 nM
Structure (SMILES): COc1cc(Oc2ccc3nc(/C=C/C(=O)NO)ccc3c2)cc(OC)c1OC
Ratio IC50 (Homo sapiens [2]): 67 | Ratio IC50 (Homo sapiens [6]): 0.7 | Ratio IC50 (Homo sapiens [4]): 106

inhibition [1]: Dose-dependent effect | GI50 (HCT-116): 1470 nM | IC50 (Histone deacetylase 1; sf21): Not Active | GI50 (A549): 2350 nM | inhibition [3]: Dose-dependent effect | IC50 (Histone deacetylase 8): 4770 nM | IC50 (Histone deacetylase 2; read-out: IC50): 1310 nM | IC50 [5]: 49 nM
Structure (SMILES): COc1ccc(-c2ccc3nc(/C=C/C(=O)NO)ccc3c2)cc1
Ratio IC50 (Homo sapiens [6]): 27 | Ratio IC50 (Homo sapiens [4]): 97

GI50 (HCT-116): 2620 nM | GI50 (A549): 3350 nM
Structure (SMILES): COc1cc(C(=O)c2ccc3nc(/C=C/C(=O)NO)ccc3c2)cc(OC)c1OC

GI50 (HCT-116): 2740 nM | GI50 (A549): 4350 nM
Structure (SMILES): COc1cccc(Oc2ccc3nc(/C=C/C(=O)NO)ccc3c2)c1

inhibition [1]: Dose-dependent effect | GI50 (HCT-116): 1820 nM | IC50 (Histone deacetylase 1; read-out: IC50): > 10000 nM | GI50 (A549): 3200 nM | inhibition [3]: Dose-dependent effect | IC50 (Histone deacetylase 8): 7750 nM | IC50 (Histone deacetylase 2): Not Active | IC50 [5]: 20.7 nM
Structure (SMILES): COc1ccc(Oc2ccc3nc(/C=C/C(=O)NO)ccc3c2)cc1
Ratio IC50 (Homo sapiens [2]): > 483 | Ratio IC50 (Homo sapiens [4]): 374
